# In paper PMC2919811 (Analytical biochemistry, 2010):
# “And” between values parts separate entries of the source, which are not always exact repeats. Equal entries are not always repeated.
# Legend:
# [1] = target: T1, OATP1B3 (Homo sapiens, UniProt Q9NPD5); assay: Cellular accumulation in CHO cells transiently transfected with OATP1B3; settings: 10 μM 8-FcA, 20 minutes
# T1 sequence (Q9NPD5 1-702): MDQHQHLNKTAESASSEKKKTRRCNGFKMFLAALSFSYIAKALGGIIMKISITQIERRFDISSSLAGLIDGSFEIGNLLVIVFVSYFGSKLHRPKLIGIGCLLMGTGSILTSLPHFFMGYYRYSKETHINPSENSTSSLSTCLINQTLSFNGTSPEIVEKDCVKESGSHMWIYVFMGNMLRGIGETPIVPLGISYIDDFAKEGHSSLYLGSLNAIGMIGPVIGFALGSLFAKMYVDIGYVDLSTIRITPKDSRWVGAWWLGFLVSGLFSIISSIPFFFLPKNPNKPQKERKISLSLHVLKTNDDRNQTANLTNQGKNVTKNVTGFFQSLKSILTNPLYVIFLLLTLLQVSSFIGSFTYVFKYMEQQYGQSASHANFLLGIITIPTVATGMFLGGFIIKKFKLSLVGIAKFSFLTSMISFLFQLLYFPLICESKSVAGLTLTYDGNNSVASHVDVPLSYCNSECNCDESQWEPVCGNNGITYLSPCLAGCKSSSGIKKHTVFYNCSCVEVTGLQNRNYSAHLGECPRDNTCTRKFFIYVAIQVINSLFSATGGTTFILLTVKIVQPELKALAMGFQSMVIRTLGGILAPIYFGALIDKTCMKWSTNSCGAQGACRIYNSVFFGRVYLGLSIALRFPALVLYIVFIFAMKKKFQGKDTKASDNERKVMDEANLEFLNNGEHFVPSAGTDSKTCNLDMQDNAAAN
# [2] = target: T2, OATP2B1 (Homo sapiens, UniProt O94956); assay: Substrate uptake in CHO cells stably expressing OATP2B1; type: cell-based; settings: 2 μM substrate, five minute accumulation, CHOvector = 1
# T2 sequence (O94956 1-709): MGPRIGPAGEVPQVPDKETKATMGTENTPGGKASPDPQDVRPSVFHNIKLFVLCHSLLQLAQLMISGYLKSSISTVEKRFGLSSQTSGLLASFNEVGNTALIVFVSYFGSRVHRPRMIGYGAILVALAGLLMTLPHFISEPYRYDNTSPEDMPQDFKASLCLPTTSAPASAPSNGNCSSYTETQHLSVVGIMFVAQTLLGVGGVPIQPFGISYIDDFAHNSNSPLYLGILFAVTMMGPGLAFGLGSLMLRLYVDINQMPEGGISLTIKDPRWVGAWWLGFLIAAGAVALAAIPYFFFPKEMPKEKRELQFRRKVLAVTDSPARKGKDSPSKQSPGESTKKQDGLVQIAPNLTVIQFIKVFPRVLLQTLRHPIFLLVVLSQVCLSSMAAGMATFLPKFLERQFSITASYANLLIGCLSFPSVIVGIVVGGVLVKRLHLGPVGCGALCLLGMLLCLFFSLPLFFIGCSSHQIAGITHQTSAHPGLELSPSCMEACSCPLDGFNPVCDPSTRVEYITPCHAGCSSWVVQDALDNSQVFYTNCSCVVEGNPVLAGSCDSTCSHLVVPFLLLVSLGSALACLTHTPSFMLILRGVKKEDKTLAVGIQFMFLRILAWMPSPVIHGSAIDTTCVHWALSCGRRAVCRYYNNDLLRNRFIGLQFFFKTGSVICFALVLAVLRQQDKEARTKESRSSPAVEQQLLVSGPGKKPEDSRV
# [3] = target: T3, OCT2 (Homo sapiens, UniProt O15244); assay: Cellular accumulation in CHO cells transiently transfected with OCT2; type: cell-based; settings: 10 μM 8-FcA, 20 minutes
# T3 sequence (O15244 1-555): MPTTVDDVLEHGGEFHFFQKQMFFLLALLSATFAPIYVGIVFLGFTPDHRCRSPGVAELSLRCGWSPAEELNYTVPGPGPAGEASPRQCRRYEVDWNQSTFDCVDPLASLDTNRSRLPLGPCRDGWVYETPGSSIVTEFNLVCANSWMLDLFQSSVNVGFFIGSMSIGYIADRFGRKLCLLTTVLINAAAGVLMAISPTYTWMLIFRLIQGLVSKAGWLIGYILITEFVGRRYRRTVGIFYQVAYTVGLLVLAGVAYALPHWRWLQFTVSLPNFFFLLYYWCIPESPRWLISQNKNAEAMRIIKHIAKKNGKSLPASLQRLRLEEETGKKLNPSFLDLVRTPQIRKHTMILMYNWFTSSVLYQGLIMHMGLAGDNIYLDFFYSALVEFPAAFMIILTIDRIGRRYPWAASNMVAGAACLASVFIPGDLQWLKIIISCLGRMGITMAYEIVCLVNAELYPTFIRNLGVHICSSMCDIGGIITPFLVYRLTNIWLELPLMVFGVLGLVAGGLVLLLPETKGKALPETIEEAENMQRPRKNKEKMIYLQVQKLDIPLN
# [4] = target: T4, OAT1 (Homo sapiens, UniProt Q4U2R8); assay: Cellular accumulation in CHO cells transiently transfected with OAT1; type: cell-based; settings: 10 μM 8-FcA, 20 minutes
# T4 sequence (Q4U2R8 1-563): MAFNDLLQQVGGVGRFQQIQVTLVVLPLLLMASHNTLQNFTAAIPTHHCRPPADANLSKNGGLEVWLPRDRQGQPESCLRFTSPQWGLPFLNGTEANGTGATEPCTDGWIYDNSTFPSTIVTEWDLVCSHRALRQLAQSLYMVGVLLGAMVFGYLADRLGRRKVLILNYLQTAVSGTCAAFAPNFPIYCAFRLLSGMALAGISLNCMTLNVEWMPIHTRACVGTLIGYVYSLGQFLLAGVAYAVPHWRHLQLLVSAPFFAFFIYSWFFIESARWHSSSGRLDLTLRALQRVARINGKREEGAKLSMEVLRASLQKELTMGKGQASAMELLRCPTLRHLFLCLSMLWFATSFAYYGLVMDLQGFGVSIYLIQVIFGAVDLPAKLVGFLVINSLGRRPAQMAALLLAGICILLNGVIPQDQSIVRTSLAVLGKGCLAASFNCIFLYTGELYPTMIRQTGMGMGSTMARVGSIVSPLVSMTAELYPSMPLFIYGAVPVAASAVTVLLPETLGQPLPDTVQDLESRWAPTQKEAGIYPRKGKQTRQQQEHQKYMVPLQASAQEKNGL
# [5] = target: OATP1B1 (Homo sapiens, UniProt Q9Y6L6); assay: Substrate uptake and transport kinetics in CHO cells stably expressing OATP1B1
# OATP1B1, sequence (Q9Y6L6 whole entry): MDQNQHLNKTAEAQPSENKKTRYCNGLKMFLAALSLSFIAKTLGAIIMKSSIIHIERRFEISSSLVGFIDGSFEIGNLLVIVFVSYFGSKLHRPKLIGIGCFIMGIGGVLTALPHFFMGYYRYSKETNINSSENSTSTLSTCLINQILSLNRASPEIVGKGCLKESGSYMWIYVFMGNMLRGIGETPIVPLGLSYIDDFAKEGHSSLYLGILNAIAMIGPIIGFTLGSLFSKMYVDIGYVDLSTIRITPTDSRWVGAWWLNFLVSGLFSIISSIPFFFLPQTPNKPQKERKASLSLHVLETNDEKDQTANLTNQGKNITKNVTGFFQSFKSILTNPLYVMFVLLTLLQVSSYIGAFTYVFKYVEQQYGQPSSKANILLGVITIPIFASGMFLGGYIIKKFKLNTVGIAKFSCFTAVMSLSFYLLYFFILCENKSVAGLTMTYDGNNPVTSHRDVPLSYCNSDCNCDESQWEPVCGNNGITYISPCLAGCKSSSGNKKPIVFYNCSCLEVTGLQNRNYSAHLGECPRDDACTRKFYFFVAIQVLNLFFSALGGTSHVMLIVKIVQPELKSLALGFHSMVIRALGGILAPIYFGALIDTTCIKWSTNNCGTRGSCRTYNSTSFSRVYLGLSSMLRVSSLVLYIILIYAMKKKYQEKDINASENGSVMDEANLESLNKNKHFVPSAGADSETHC
structure (smiles),measurement,setting,value
"Nc1ncnc2c1nc(SCCNC(=S)Nc1ccc(-c3c4ccc(=O)cc-4oc4cc(O)ccc34)c(C(=O)O)c1)n2[C@@H]1O[C@@H]2COP(=O)(O)O[C@H]2[C@H]1O [8-FcA, 8-(2-[Fluoresceinyl]aminoethylthio) adenosine-3', 5'-cyclic monophosphate]","cellular accumulation by fluorescence microscopy, OATP1B3",[1],readily accumulated
same,"cellular accumulation relative to control, CHOOATP2B1",[2],not statistically different from that of CHOvector
same,"cellular accumulation by fluorescence microscopy, OCT2",[3],negative
same,"cellular accumulation by fluorescence microscopy, OAT1",[4],modest accumulation
same,"transport efficiency, Vmax/Km (OATP1B1)",[5],0.069 μL/min/cm^2
same,"cellular accumulation relative to control, CHOOATP1B1","[5]; 2 μM substrate, five minute accumulation, CHOvector = 1",robust accumulation
same,Vmax of OATP1B1-mediated transport,"[5]; 8-FcA 0.25-25 μM, 10 min uptake, CHOvector subtracted, mean ± standard error",0.20 pmol/min/cm^2 and 0.20±0.01 pmol/min/cm^2
